PMC12298629, “New Derivatives of Caracasine Acid with Anti-Leukemic Activity and Limited Effectiveness in Spheroid Cultures” (Pharmaceuticals, 2025)

Tests used:
leukemic cells = assay: Effect on the cell cycle; format: cell-based, human; details: comparable concentrations to caracasine acid
normal human leukocytes = system: normal human leukocytes; parameters: method as in PMID 31449809, PMID 35430982; details: 0.1 nM to 50 μM in 0.01% DMSO; cited from earlier work

Compound	Effect on the cell cycle (leukemic cells)	Effect on primary leukocytes (normal human leukocytes)
C=C(C)C1CCC23CC(CCC2C1(C)CCC(=O)OC(C)=O)C(C)C3=O (single isomer, unassigned; ent-3) [Compound 6, Ent-3,4-Seco-15-Oxo-Kaur-4(19)-en-Acetic Anhydride]	no effect	–
C=C(C)C1CCC23CC(CCC2C1(C)CCC(=O)O)C(C)C3=O (single isomer, unassigned; ent-3) [Compound 5, Ent-3,4-Seco-15-Oxo-Kaur-4(19)-en-3-Oic Acid]	no effect	–
C=C1C(=O)C23CCC(C(=C)C)C(C)(CCC(=O)OC)C2CCC1C3 (stereo not drawn) [Compound 2, Caracasine]	–	no significant effect
